From patent US20230141403A1 (Hoffmann-La Roche Inc., priority 2020, published 2023) come the findings set out here.

Each structure is given as a SMILES string. Where a name gives a salt, the structure may show the parent alone.

The test system of the first assay is Acinetobacter baumannii ATCC17978. Description: Antimicrobial susceptibility testing: 90% growth inhibitory concentration (IC90) determination. Type of assay: cell-based. The note with it: ATCC17978, 90% growth inhibitory concentration, Iso-Sensitest broth, optical density at 600 nm over 16h, 35±2° C., read-out: AB ATCC 17978 IC90. As for the experimental part: Antimicrobial Susceptibility Testing:
90% Growth Inhibitory Concentration (IC90) Determination
The in vitro antimicrobial activity of the compounds was determined according to the following procedure:
The assay used a 10-points Iso-Sensitest broth medium to measure quantitatively the in vitro activity of the compounds against Acinetobacter baumannii ATCC17961 or ATCC17978.
Stock compounds in DMSO were serially twofold diluted (e.g. range from 50 to 0.097 μM final concentration) in 384 wells microtiter plates and inoculated with 49 μl the bacterial suspension in Iso-Sensitest medium to have a final cell concentration of ˜5×10^(5) CFU/ml in a final volume/well of 50 ul/well. Microtiter plates were incubated at 35±2° C.
Bacterial cell growth was determined with the measurement of optical density at λ=600 nm each 20 minutes over a time course of 16h. Growth inhibition was calculated during the logarithmic growth of the bacterial cells with determination of the concentration inhibiting 50% (IC50) and 90% (IC90) of the growth.
Table 1 provides the 90% growth inhibitory concentrations (IC90) in micromoles per liter of the compounds of present invention obtained against the strain Acinetobacter baumannii ATCC17978.
With `COc1ccc(-c2cnc3c(Nc4ccc(NC(C)=O)cc4)nccn23)cc1Cl` [Example 17, N-(4-((3-(3-chloro-4-methoxyphenyl)imidazo[1,2-a]pyrazin-8-yl)amino)phenyl)acetamide], the IC90 (commonly the point of the concentration-response curve where the effect stands at 90%) was determined as 0.43 µM. The same measure, in the same setting: the figure for `COc1ccc(-c2cnc3c(Nc4ccc(NC(C)=O)c(C)c4)nccn23)c(F)c1` [Example 89, N-(4-((3-(2-fluoro-4-methoxyphenyl)imidazo [1,2-a]pyrazin-8-yl)amino)-2-methylphenyl) acetamide] is 0.28 µM; for `COc1ccc(-c2cnc3c(Nc4ccc(NC(C)=O)c(C)c4)nccn23)cc1` [Example 20, N-{4-[3-(4-Methoxy-phenyl)-imidazo[1,2-a]pyrazin-8-ylamino]-2-methyl-phenyl}-acetamide] it is 0.11 µM. Still for that read-out and setting: the figure for `CC(=O)Nc1ccc(Nc2nccn3c(-c4ccc(OC(F)F)cc4)cnc23)cc1` [Example 8, N-[4-[[3-[4-(difluoromethoxy)phenyl]imidazo [1,2-a]pyrazin-8-yl]amino]phenyl] acetamide] is 0.82 µM; for `CC(=O)Nc1ccc(Nc2nccn3c(-c4ccc(Cl)cc4)cnc23)cc1C` [Example 43, N-(4-((3-(4-chlorophenyl)imidazo[1,2-a]pyrazin-8-yl)amino)-2-methylphenyl)acetamide] it is 0.12 µM; for `Cc1cc(Nc2nccn3c(-c4ccc(OC(F)F)cc4)cnc23)ccc1CO` [Example 121, (4-((3-(4-(difluoromethoxy)phenyl)imidazo[1,2-a]pyrazin-8-yl)amino)-2-methylphenyl) methanol] it is 0.67 µM. As for `O=C1CCCN1c1ccc(Nc2nccn3c(-c4ccc(OC(F)F)c(F)c4)cnc23)cc1` [Example 57, 1-(4-((3-(4-(difluoromethoxy)-3-fluorophenyl)imidazo [1,2-a]pyrazin-8-yl)amino)phenyl)pyrrolidin-2-one], the IC90 came out at 0.14 µM. On the same count and under the same terms, the value for `COc1ccc(-c2cnc3c(Nc4ccc(NC(C)=O)cc4)nccn23)cc1F` [Example 16, N-(4-((3-(3-fluoro-4-methoxyphenyl)imidazo[1,2-a]pyrazin-8-yl)amino)phenyl)acetamide] was 0.4 µM; that for `CCCCC(=O)NCCOCC(=O)Nc1ccc(Nc2nccn3c(-c4ccc(OC)cc4)cnc23)cc1C` [Example 90, N-(2-(2-((4-((3-(4-methoxyphenyl)imidazo[1,2-a]pyrazin-8-yl)amino)-2-methylphenyl)amino)-2-oxoethoxy)ethyl)pentanamide] was 0.24 µM. On the same count and under the same terms, the figure for `COc1ccc(-c2cnc3c(Nc4ccc(Cn5ccnc5)c(C)c4)nccn23)cc1` [Example 119, N-[4-(imidazol-1-ylmethyl)-3-methyl-phenyl]-3-(4-methoxyphenyl) imidazo[1,2-a]pyrazin-8-amine] is 0.37 µM. The same measure, in the same setting: the figure for `COc1ccc(-c2cnc3c(Nc4ccc(NC(=O)COCCN)c(C)c4)nccn23)cc1` [Example 75, 2-(2-aminoethoxy)-N-(4-((3-(4-methoxyphenyl)imidazo[1,2-a]pyrazin-8-yl)amino)-2-methylphenyl)acetamide hydrochloride] is 0.28 µM; for `CCc1cc(Nc2nccn3c(-c4ccc(OC)c(F)c4F)cnc23)ccc1N` [Example 92, N1-(3-(2,3-difluoro-4-methoxyphenyl)imidazo[1,2-a]pyrazin-8-yl)-3-ethylbenzene-1,4-diamine] it is 0.7 µM. With `O=C1COCCN1c1ccc(Nc2nccn3c(-c4ccc(OC(F)F)cc4)cnc23)cc1` [Example 4, 4-[4-[[3-[4-(difluoromethoxy)phenyl]imidazo[1,2-a]pyrazin-8-yl]amino]phenyl]morpholin-3-one], the concentration for an effect of 90% (IC90) turned out to be 0.33 µM. On the same count and under the same terms, the value for `COc1ccc(-c2cnc3c(Nc4ccc(N5CCCC5=O)cc4)nccn23)cc1` [Example 18, 1-[4-[[3-(4-methoxyphenyl)imidazo[1,2-a]pyrazin-8-yl]amino]phenyl]pyrrolidin-2-one] was 0.33 µM; that for `COc1ccc(-c2cnc3c(Nc4ccc(NC(=O)CO)cc4)nccn23)cc1F` [Example 12, N-[4-[[3-(3-fluoro-4-methoxy-phenyl)imidazo [1,2-a]pyrazin-8-yl]amino]phenyl]-2-hydroxy-acetamide; 2,2,2-trifluoroacetic acid] was 0.89 µM; that for `CC(=O)Nc1ccc(Nc2nccn3c(-c4ccc(F)c(F)c4F)cnc23)cc1C` [Example 87, N-(2-methyl-4-((3-(2,3,4-trifluorophenyl)imidazo[1,2-a]pyrazin-8-yl)amino)phenyl) acetamide] was 0.26 µM.

On to `COc1ccc(-c2cnc3c(Nc4ccc(NC(C)=O)c(C)c4)nccn23)cc1Cl` [Example 11, N-[4-[[3-(3-chloro-4-methoxy-phenyl)imidazo [1,2-a]pyrazin-8-yl]amino]-2-methyl-phenyl]acetamide; 2,2,2-trifluoroacetic acid], for which the IC90 was 0.087 µM. On the same count and under the same terms, the value for `O=S1(=O)CCCN1c1ccc(Nc2nccn3c(-c4ccc(OC(F)F)cc4)cnc23)cc1` [Example 1, 3-[4-(difluoromethoxy)phenyl]-N-[4-(1,1-dioxo-1,2-thiazolidin-2-yl)phenyl]imidazo[1,2-a]pyrazin-8-amine] was 0.33 µM; that for `COc1ccc(-c2cnc3c(Nc4ccc(NC(=O)CN5CCNCC5)c(C)c4)nccn23)cc1Cl` [Example 49, N-(4-((3-(3-chloro-4-methoxyphenyl)imidazo[1,2-a]pyrazin-8-yl)amino)-2-methylphenyl)-2-(piperazin-1-yl)acetamide] was 0.3 µM; that for `CCc1cc(Nc2nccn3c(-c4ccc(OC)c(Cl)c4)cnc23)ccc1NC(C)=O` [Example 45, N-(4-((3-(3-chloro-4-methoxyphenyl)imidazo[1,2-a]pyrazin-8-yl)amino)-2-ethylphenyl)acetamide] was 0.16 µM. For `COc1ccc(-c2cnc3c(Nc4ccc(NC(=O)COCCN)cc4)nccn23)cc1Cl` [Example 14, 2-(2-aminoethoxy)-N-[4-[[3-(3-chloro-4-methoxy-phenyl)imidazo [1,2-a]pyrazin-8-yl]amino]phenyl] acetamide; 2,2,2-trifluoroacetic acid], the IC90 amounted to 0.64 µM.

On to `COc1ccc(-c2cnc3c(Nc4ccc(S(=O)(=O)NCCOCCN)c(C)c4)nccn23)cc1` [Example 61, N-(2-(2-aminoethoxy)ethyl)-4-((3-(4-methoxyphenyl)imidazo[1,2-a]pyrazin-8-yl)amino)-2-methylbenzenesulfonamide], for which the IC90 was 0.73 µM.

As for `COc1ccc(-c2cnc3c(Nc4ccc(NC(C)=O)cc4)nccn23)c(F)c1` [Example 34, N-(4-((3-(2-fluoro-4-methoxyphenyl)imidazo[1,2-a]pyrazin-8-yl)amino)phenyl)acetamide], the IC90 amounted to 0.55 µM. Still for that read-out and setting: the figure for `CC(=O)Nc1ccc(Nc2nccn3c(-c4ccc(Cl)cc4)cnc23)cc1` [Example 42, N-(4-((3-(4-chlorophenyl)imidazo[1,2-a]pyrazin-8-yl)amino)phenyl)acetamide] is 0.83 µM; for `Cc1cc(Nc2nccn3c(-c4ccc(OC(F)F)c(F)c4)cnc23)ccc1N1CCCC1=O` [Example 56, 1-(4-((3-(4-(difluoromethoxy)-3-fluorophenyl)imidazo [1,2-a]pyrazin-8-yl)amino)-2-methylphenyl)pyrrolidin-2-one] it is 0.25 µM. Same read-out and setting: the figure for `Cc1cc(Nc2nccn3c(-c4ccc(OC(F)F)cc4)cnc23)ccc1N1CCCC1=O` [Example 54, 1-(4-((3-(4-(difluoromethoxy)phenyl)imidazo[1,2-a]pyrazin-8-yl)amino)-2-methylphenyl)pyrrolidin-2-one] is 0.72 µM; for `COc1ccc(-c2cnc3c(Nc4ccc(S(C)(=O)=O)c(Cl)c4)nccn23)cc1` [Example 81, N-(3-chloro-4-(methylsulfonyl)phenyl)-3-(4-methoxyphenyl) imidazo [1,2-a]pyrazin-8-amine] it is 0.63 µM; for `CC(=O)Nc1ccc(Nc2nccn3c(-c4ccc(OCC#N)cc4)cnc23)cc1C` [Example 88, N-(4-((3-(4-(cyanomethoxy)phenyl)imidazo[1,2-a]pyrazin-8-yl)amino)-2-methylphenyl) acetamide] it is 0.33 µM. Still for that read-out and setting: the figure for `COc1ccc(-c2cnc3c(Nc4ccc(S(=O)(=O)N5CCOCC5)cc4)nccn23)cc1` [Example 78, 3-(4-methoxyphenyl)-N-(4-(morpholinosulfonyl)phenyl)imidazo[1,2-a]pyrazin-8-amine] is 0.58 µM; for `COc1ccc(-c2cnc3c(Nc4ccc(NC(C)=O)c(Cl)c4)nccn23)cc1Cl` [Example 46, N-(2-chloro-4-((3-(3-chloro-4-methoxyphenyl)imidazo[1,2-a]pyrazin-8-yl)amino)phenyl)acetamide] it is 0.89 µM.

Still in this assay, the particulars now being: ATCC17978, 16 h, read-out: AB ATCC 17978 IC90 (uM).
On to `COc1ccc(-c2cnc3c(Nc4ccc(NC(=O)COCCOCCN)cc4)nccn23)cc1Cl` [Example 13, 2-[2-(2-aminoethoxy)ethoxy]-N-[4-[[3-(3-chloro-4-methoxy-phenyl)imidazo[1,2-a]pyrazin-8-yl]amino]phenyl]acetamide; 2,2,2-trifluoroacetic acid], for which the IC90 worked out at 0.81 µM.

Turning to `COc1ccc(-c2cnc3c(Nc4ccc5c(c4)CCCC(=O)N5)nccn23)cc1F` [Example 5, 7-[[3-(3-fluoro-4-methoxy-phenyl)imidazo[1,2-a]pyrazin-8-yl]amino]-1,3,4,5-tetrahydro-1-benzazepin-2-one hydrochloride], the IC90 was found to be 0.88 µM.
